In ChEMBL document CHEMBL5584307, “Discovery of a Potent and Orally Bioavailable Xanthine Oxidase/Urate Transporter 1 Dual Inhibitor as a Potential Treatment for Hyperuricemia and Gout” (J Med Chem, 2024):

How the values were obtained:
[1] = Toxicity in cynomolgous monkey administered daily for 28 days; parameters: species or system Macaca fascicularis; conditions: cynomolgus monkey, in vivo; time 28 day
[2] = Tmax in Tufted capuchin monkey at 30 mg/kg, po measured for 24 hrs by LC-MS/MS analysis; format: ADME, organism-based; conditions: sapajus apella, in vivo
[3] = AUC (last) in Tufted capuchin monkey at 30 mg/kg, po measured for 24 hrs by LC-MS/MS analysis; format: ADME, organism-based; conditions: sapajus apella, in vivo
[4] = biological target: Cytochrome P450 3A4 (Homo sapiens, UniProt P08684); test: Inhibition of CYP3A4 in human liver microsomes in presence of NADPH by LC-MS/MS analysis; format: ADME, Microsome
[5] = Toxicity in cynomolgous monkey assessed as flatus in intestines at 200 mg/kg/day for 28 days consecutively; format: organism-based, Macaca fascicularis; conditions: cynomolgus monkey, in vivo, 672 h, time 28 day
[6] = Genotoxicity in Salmonella typhimurium TA100 by Ames test; format: toxicity; conditions: salmonella enterica subsp. enterica serovar typhimurium
[7] = Stability in dog liver microsomes assessed as half life at 1 uM measured upto 60 mins in presence of NADPH by LC-MS/MS analysis; format: ADME, Canis lupus familiaris, Microsome
[8] = Toxicity in monkey; parameters: species or system Macaca mulatta; conditions: rhesus monkey, in vivo
[9] = Genotoxicity in Salmonella typhimurium TA98 by Ames test; format: toxicity; conditions: salmonella enterica subsp. enterica serovar typhimurium
[10] = AUC (last) in Tufted capuchin monkey at 10 mg/kg, po measured for 24 hrs by LC-MS/MS analysis; format: ADME, organism-based; conditions: sapajus apella, in vivo
[11] = AUC (last) in Cynomolgous monkey at 5 mg/kg, po measured upto 24 hrs by LC-MS/MS analysis; format: ADME, organism-based, Macaca fascicularis; conditions: cynomolgus monkey, in vivo
[12] = Toxicity in cynomolgous monkey assessed as increase in salivation at 90 to 200 mg/kg/day for 28 days consecutively; format: organism-based, Macaca fascicularis; conditions: cynomolgus monkey, in vivo, 672 h; dose 90-200 mg/kg/day, time 28 day
[13] = tested on: Sapajus apella; test: Urate lowering effect in Tufted capuchin monkey assessed as serum xanthine level at 30 mg/kg/day, po qd for 3 days consecutively; format: functional; conditions: time 3 day
[14] = tested on: Sapajus apella; test: Urate lowering effect in Tufted capuchin monkey assessed as urine xanthine level at 30 mg/kg/day, po qd for 3 days consecutively; format: functional; conditions: time 3 day
[15] = Genotoxicity in Salmonella typhimurium TA97 by Ames test; format: toxicity; conditions: salmonella enterica subsp. enterica serovar typhimurium
[16] = Tmax in Tufted capuchin monkey at 10 mg/kg, po measured for 24 hrs by LC-MS/MS analysis; format: ADME, organism-based; conditions: sapajus apella, in vivo
[17] = Clearance in Cynomolgous monkey at 1 mg/kg, iv measured upto 24 hrs by LC-MS/MS analysis; format: ADME, organism-based, Macaca fascicularis; conditions: cynomolgus monkey, in vivo
[18] = Volume of distribution at steady state in Beagle dog at 5 mg/kg, po or 1 mg/kg, iv measured upto 24 hrs by LC-MS/MS analysis; format: ADME, organism-based, Canis lupus familiaris; conditions: in vivo
[19] = Toxicity in rat assessed as increase in ALP level at 120 mg/kg/day for 28 days; format: organism-based; conditions: in vivo, 672 h, time 28 day
[20] = AUC (last) in Tufted capuchin monkey at 100 mg/kg, po measured for 24 hrs by LC-MS/MS analysis; format: ADME, organism-based; conditions: sapajus apella, in vivo
[21] = Toxicity in cynomolgous monkey assessed as decrease in body weight at 90 to 200 mg/kg/day for 28 days consecutively; format: organism-based, Macaca fascicularis; conditions: cynomolgus monkey, in vivo, 672 h; dose 90-200 mg/kg/day, time 28 day
[22] = Ratio of drug concentration in Sprague-Dawley rat kidney to plasma at 3 mg/kg, po measured for 24 hrs by LC-MS/MS analysis; format: ADME, organism-based; conditions: kidney and plasma
[23] = Cmax in Tufted capuchin monkey at 10 mg/kg, po measured for 24 hrs by LC-MS/MS analysis; format: ADME, organism-based; conditions: sapajus apella, in vivo
[24] = Toxicity in rat assessed as diffuse hepatocytes hypertrophy at 120 mg/kg/day for 28 days by H and E staining based analysis; format: organism-based; conditions: in vivo, 672 h, time 28 day
[25] = biological target: Voltage-gated inwardly rectifying potassium channel KCNH2 (Homo sapiens, UniProt Q12809); test: Inhibition of hERG by electrophysiology; format: toxicity
[26] = Stability in human liver microsomes assessed as half life at 1 uM measured upto 60 mins in presence of NADPH by LC-MS/MS analysis; format: ADME, Microsome
[27] = AUC (0 to t) in female cynomolgous monkey at 30 mg/kg/day for 28 days; format: ADME, organism-based, Macaca fascicularis; conditions: cynomolgus monkey, in vivo, time 28 day
[28] = Cmax in Tufted capuchin monkey at 100 mg/kg, po measured for 24 hrs by LC-MS/MS analysis; format: ADME, organism-based; conditions: sapajus apella, in vivo
[29] = Half life in overnight-fasted Sprague-Dawley rat at 5 mg/kg, po measured upto 24 hrs by LC-MS/MS analysis; format: ADME, organism-based; conditions: in vivo
[30] = AUC (last) in overnight-fasted Sprague-Dawley rat at 1 mg/kg, iv measured upto 24 hrs by LC-MS/MS analysis; format: ADME, organism-based; conditions: in vivo
[31] = Cmax in Beagle dog at 5 mg/kg, po measured upto 24 hrs by LC-MS/MS analysis; format: ADME, organism-based, Canis lupus familiaris; conditions: in vivo
[32] = biological target: T1, Solute carrier family 22 member 12 (Homo sapiens, UniProt Q96S37); test: Inhibition of URAT1 (unknown origin) by absorbance based assay
T1 sequence (Q96S37 whole entry): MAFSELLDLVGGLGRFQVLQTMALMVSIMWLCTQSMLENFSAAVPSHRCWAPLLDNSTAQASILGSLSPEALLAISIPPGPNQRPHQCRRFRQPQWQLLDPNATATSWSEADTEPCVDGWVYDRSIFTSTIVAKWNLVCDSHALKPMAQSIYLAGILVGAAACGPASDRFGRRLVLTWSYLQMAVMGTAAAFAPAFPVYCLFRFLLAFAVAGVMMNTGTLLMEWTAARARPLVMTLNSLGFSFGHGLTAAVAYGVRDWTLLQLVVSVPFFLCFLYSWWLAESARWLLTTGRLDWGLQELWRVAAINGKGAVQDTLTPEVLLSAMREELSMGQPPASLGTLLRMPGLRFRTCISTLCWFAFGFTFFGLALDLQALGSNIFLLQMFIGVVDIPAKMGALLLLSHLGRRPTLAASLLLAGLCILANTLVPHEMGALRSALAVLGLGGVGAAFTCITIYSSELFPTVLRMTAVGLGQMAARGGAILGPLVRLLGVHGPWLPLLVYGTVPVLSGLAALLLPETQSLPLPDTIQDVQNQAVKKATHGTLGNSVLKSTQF

[33] = Toxicity in cynomolgous monkey assessed as drug tolerance at 30 to 200 mg/kg/day for 28 days consecutively; format: organism-based, Macaca fascicularis; conditions: cynomolgus monkey, in vivo, 672 h; dose 30-200 mg/kg/day, time 28 day
[34] = Stability in monkey liver microsomes assessed as half life at 1 uM measured upto 60 mins in presence of NADPH by LC-MS/MS analysis; format: ADME, Macaca mulatta, Microsome; conditions: rhesus monkey
[35] = Toxicity in cynomolgous monkey assessed as development-limiting effect; parameters: species or system Macaca fascicularis; conditions: cynomolgus monkey, in vivo
[36] = Toxicity in cynomolgous monkey assessed as decrease in food consumption at 90 to 200 mg/kg/day for 28 days consecutively; format: organism-based, Macaca fascicularis; conditions: cynomolgus monkey, in vivo, 672 h; dose 90-200 mg/kg/day, time 28 day
[37] = Oral bioavailability in Cynomolgous monkey at 5 mg/kg measured upto 24 hrs by LC-MS/MS analysis; format: ADME, organism-based, Macaca fascicularis; conditions: cynomolgus monkey, in vivo
[38] = Half life in Tufted capuchin monkey at 100 mg/kg, po measured for 24 hrs by LC-MS/MS analysis; format: ADME, organism-based; conditions: sapajus apella, in vivo
[39] = Toxicity in rat; conditions: in vivo
[40] = Oral bioavailability in overnight-fasted Sprague-Dawley rat at 5 mg/kg measured upto 24 hrs by LC-MS/MS analysis; format: ADME, organism-based; conditions: in vivo

Chain of Voltage-gated inwardly rectifying potassium channel KCNH2 (Q12809 whole entry): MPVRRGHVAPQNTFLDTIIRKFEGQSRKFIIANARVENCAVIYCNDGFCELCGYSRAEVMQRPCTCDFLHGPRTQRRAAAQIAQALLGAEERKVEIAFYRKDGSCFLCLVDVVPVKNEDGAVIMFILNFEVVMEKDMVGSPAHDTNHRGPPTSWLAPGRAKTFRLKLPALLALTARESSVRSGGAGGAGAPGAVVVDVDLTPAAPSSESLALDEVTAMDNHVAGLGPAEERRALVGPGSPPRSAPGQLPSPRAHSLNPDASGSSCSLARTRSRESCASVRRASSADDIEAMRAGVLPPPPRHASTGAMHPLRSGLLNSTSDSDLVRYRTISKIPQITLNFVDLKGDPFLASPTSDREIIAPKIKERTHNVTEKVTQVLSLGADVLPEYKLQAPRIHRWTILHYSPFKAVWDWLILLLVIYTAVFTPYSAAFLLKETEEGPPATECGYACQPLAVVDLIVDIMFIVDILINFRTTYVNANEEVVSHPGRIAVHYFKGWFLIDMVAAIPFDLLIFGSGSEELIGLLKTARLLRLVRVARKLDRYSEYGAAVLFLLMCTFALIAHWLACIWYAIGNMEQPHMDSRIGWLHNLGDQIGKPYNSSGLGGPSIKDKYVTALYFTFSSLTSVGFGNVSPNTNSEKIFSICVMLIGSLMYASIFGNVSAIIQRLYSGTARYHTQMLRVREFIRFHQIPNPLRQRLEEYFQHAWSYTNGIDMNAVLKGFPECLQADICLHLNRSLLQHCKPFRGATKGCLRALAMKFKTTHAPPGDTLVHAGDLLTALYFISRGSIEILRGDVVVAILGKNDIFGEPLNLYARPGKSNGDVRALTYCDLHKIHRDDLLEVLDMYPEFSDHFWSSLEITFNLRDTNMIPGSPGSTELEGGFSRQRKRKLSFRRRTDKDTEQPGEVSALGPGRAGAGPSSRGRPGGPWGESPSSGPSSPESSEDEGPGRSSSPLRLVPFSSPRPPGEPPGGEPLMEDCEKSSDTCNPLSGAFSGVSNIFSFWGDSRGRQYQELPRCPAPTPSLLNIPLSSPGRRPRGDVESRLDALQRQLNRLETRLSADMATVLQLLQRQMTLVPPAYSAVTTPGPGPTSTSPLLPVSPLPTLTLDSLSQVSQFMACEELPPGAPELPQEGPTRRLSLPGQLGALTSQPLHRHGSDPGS
Chain of Cytochrome P450 3A4 (P08684 whole entry): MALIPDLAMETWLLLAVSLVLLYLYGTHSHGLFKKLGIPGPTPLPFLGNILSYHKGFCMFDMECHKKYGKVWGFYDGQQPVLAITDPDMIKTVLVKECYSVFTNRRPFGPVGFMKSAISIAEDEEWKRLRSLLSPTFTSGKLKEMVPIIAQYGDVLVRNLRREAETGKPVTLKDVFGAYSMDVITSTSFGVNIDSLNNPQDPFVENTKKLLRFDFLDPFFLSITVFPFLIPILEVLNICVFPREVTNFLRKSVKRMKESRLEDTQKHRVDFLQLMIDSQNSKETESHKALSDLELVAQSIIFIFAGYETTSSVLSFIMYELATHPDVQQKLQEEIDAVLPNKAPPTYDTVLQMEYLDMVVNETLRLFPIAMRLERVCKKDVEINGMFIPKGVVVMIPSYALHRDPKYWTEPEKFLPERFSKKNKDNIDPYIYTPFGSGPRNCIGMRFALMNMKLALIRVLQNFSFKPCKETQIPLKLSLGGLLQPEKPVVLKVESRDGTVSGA

## N#Cc1cc(-c2ccc(C(=O)O)c(O)c2)c2oc(F)cc2c1
[1]
  NOAEL at 672 h: 30 mg/kg/day
[2]
  Tmax: 0.8 h
[3]
  AUC(0-t) at 24 h: 31600 ng·h/mL
[4]
  IC50: > 50 µM
[5]
  Activity: Toxic
[6]
  Activity: Non-Toxic
[7]
  half-life at 1 µM: 21.1 h
[8]
  MTD: 1000 mg/kg
[9]
  Activity: Non-Toxic
[10]
  AUC(0-t) at 24 h: 4340 ng·h/mL
[11]
  AUC(0-t) at 24 h: 34200 ng·h/mL
[12]
  Activity: Toxic
[13]
  Activity: 6.19 µg·h/mL
[14]
  Activity: 29.26 µg·h/mL
[15]
  Activity: Non-Toxic
[16]
  Tmax: 0.8 h
[17]
  clearance: 0.993 mL/min/kg
[18]
  Vdss: 1.71 L/kg
[19]
  Activity: Toxic
[20]
  AUC(0-t) at 24 h: 302000 ng·h/mL
[21]
  Activity: Toxic
[22]
  Kp at 24 h: 0.56
[23]
  Cmax: 2470 ng/mL
[24]
  Activity: Toxic
[25]
  IC50: > 52 µM
[26]
  half-life at 1 µM: 3.75 h
[27]
  AUC(0-t) at 672 h: 336000 ng·h/mL
[28]
  Cmax: 145000 ng/mL
[29]
  half-life: 2.84 h
[30]
  AUC(0-t) at 24 h: 10900 ng·h/mL
[31]
  Cmax: 2530 ng/mL
[32]
  IC50: 0.031 µM
[33]
  Activity: Non-Toxic
[34]
  half-life at 1 µM: 2.87 h
[35]
  Activity: Non-Toxic
[36]
  Activity: Toxic
[37]
  bioavailability: 42.4%
[38]
  half-life: 3.21 h
[39]
  MTD: 450 mg/kg
[40]
  bioavailability: 145%
